The values that follow come from patent EP1144369B1 (Wyeth Holdings Corporation, priority 1999, dated 2000).

The target in one test is MMP-13 (Homo sapiens, UniProt P45452). In words: MMP-13 inhibition (thiopeptide or fluorescent peptide substrate). The test is classed as biochemical. On the procedure: (§1) The enzyme activity is measured by the rate of the color increase. The thiopeptide substrate is made up fresh as a 20 mM stock in 100% DMSO and the DTNB is dissolved in 100% DMSO as a 100 mM stock and stored in the dark at room temperature. Both the substrate and DTNB are diluted together to 1 mM with substrate buffer (50 mM HEPES pH 7.5, 5 mM CaCl2) before use. The stock of enzyme is diluted with buffer (50 mM HEPES, pH 7.5, 5 mM CaCl2, 0.02% Brij) to the desired final concentration.
(§2) Alternatively, a fluorescent peptide substrate is used. In this test procedure, the peptide substrate contains a fluorescent group and a quenching group. Upon cleavage of the substrate by an MMP, the fluorescence that is generated is quantitated on the fluorescence plate reader. The assay is run in HCBC assay buffer (50mM HEPES, pH 7.0, 5 mM Ca^+2, 0.02% Brij, 0.5% Cysteine), with human recombinant MMP-1, MMP-9, or MMP-13. The substrate is dissolved in methanol and stored frozen in 1 mM aliquots. For the assay, substrate and enzymes are diluted in HCBC buffer to the desired concentrations. Compounds are added to the 96 well plate containing enzyme and the reaction is started by the addition of substrate.
(§3) For either the thiopeptide or fluorescent peptide test procedures, the slope of the line is calculated and represents the reaction rate. The linearity of the reaction rate is confirmed (r^2 >0.85). The mean (x±sem) of the control rate is calculated and compared for statistical significance (p<0.05) with drug-treated rates using Dunnett's multiple comparison test.

Test [1] has as its target TNF-α converting enzyme (TACE) (Homo sapiens, UniProt P78536). In words: TACE inhibition (fluorescent peptidyl substrate). The test is classed as biochemical. The following applies: read-out: IC50 (nM) or % Inhibition (µM) TACE. On the procedure: Using 96-well black microtiter plates, each well receives a solution composed of 10 µL TACE (final concentration 1µg/mL), 70µL Tris buffer, pH 7.4 containing 10% glycerol (final concentration 10 mM), and 10 µL of test compound solution in DMSO (final concentration 1µM, DMSO concentration <1%) and incubated for 10 minutes at room temperature. The reaction is initiated by addition of a fluorescent peptidyl substrate (final concentration 100 µM) to each well and then shaking on a shaker for 5 sec.
The reaction is read (excitation 340 nm, emission 420 nm) for 10 min. and the increase in fluorescence over time is plotted as a linear line. The slope of the line is calculated and represents the reaction rate.
The linearity of the reaction rate is confirmed (r^2 >0.85). The mean (x±sem) of the control rate is calculated and compared for statistical significance (p<0.05) with drug-treated rates using Dunnett's multiple comparison test.

In another test the target is T1, MMP-1 (Homo sapiens, UniProt P03956).
T1 sequence (P03956 100-469): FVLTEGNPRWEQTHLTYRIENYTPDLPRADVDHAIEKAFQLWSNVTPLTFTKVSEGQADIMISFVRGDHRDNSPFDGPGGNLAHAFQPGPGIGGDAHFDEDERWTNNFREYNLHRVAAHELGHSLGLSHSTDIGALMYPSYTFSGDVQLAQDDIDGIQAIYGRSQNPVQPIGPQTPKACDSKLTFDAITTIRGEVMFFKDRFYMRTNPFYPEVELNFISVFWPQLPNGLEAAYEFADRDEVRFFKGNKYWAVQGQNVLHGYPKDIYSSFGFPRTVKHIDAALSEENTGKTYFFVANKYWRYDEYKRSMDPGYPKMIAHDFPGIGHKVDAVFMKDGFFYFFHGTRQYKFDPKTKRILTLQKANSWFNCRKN
In words: MMP-1 inhibition (thiopeptide or fluorescent peptide substrate). In kind it is biochemical. Particulars: for inhibition at 10 µM: read-out: IC50 (nM) or % Inhibition (µM) MMP-1; for IC50: plain number = IC50. On the procedure:
as §1, §2, §3

The target of another test is MMP-9 (Homo sapiens, UniProt P14780). In words: MMP-9 inhibition (thiopeptide or fluorescent peptide substrate). The test is classed as biochemical. The protocol: as §1, §2, §3
Sequence of MMP-9 (P14780 94-707): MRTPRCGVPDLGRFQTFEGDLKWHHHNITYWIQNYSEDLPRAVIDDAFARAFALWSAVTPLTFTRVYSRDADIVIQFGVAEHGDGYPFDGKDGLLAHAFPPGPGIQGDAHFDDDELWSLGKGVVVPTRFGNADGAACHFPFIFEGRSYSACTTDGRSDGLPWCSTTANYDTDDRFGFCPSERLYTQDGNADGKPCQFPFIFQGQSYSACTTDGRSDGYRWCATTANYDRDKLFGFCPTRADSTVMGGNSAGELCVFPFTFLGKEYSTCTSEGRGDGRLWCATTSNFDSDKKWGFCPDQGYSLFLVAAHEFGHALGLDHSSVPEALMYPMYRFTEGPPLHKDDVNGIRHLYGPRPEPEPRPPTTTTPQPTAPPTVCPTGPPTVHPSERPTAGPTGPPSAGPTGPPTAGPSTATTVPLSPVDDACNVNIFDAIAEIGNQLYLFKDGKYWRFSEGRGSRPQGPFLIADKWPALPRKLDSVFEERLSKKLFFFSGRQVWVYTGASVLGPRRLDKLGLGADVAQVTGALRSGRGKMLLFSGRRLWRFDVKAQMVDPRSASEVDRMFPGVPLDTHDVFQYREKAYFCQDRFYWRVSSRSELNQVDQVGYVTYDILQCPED
The subject of the next test is THP-1 cells. Nature of the test: THP-1 soluble protein assay (LPS-stimulated human monocytic THP-1 cells). The test is classed as cell-based. The following applies: LPS-stimulated THP-1 cells; for inhibition at 3 µM: Homo sapiens, read-out: % Inhib. @ 3µM THP. The text has this:
Mitogenic stimulation of THP-1 cells cause differentiation into macrophage like cells with concomitant secretion of tumor necrosis factor (TNF-a) and TNF receptor (TNF-R p75/80 and TNF-R p55/60) and Interleukin-8 (IL-8), among other proteins. In addition, non-stimulated THP-1 cells shed both the p75/80 and the p55/60 receptors over time. The release of membrane bound TNF-α and possibly TNF-R p75/80 and TNF-R p55/60, but not IL-8, is mediated by an enzyme called TNF-a converting enzyme or TACE.
THP-1 cells (from ATCC) are a human monocytic cell line which were obtained from the peripheral blood of a person with acute monocytic leukemia. They can be grown in culture and differentiated into macrophage like cells by stimulation with mitogens.
Each vial of cells are cultured for about two weeks prior to being used for an assay and then are used for only 4 to 6 weeks to screen compounds.
Cell exposure to DMSO was limited to 0.1 % final concentration. […] Compounds can be evaluated for their effect on basal (non-stimulated) shedding of the receptors by replacing the LPS with […] of THP-1 media. Plates are placed into an incubator set at 5% CO2 and at 37°C. After 4 hours of incubation, […] of tissue culture supernatant (TCS) is removed for use in an TNF-a ELISA. Following 24 hours of incubation, […] of TCS is removed and used for analysis in TNF-R p75/80, TNF-R p55/60 and IL-8 ELISAs.
In addition, at the 24 hours timepoint, and the cells for each treatment group are collected by resuspension in 500 µl/well of THP-1 media and transferred into a FACS tube. […] The samples are run on a Becton Dickinson FaxCaliber FLOW cytometry machine and the amount of dye taken up by each cell is measured in the high red wavelength (FL3). Only cells with compromised membranes (dead or dying) can take up PI. The percent of live cells is calculated by the number of cells not stained with PI, divided by the total number of cells in the sample. The viability values calculated for the drug treated groups were compared to the viability value calculated for the vehicle treated mitogen stimulated group ("vehicle positive control") to determine the "percent change from control". This "percent change from control" value is an indicator of drug toxicity.
The quantity of soluble TNF-a, TNF-R p75/80 and TNF-R p55/60 and IL-8 in the TCS of the THP-1 cell cultures are obtained with commercially available ELISAs from R&D Systems, by extrapolation from a standard curve generated with kit standards. The number of cells that either take up or exclude PI are measured by the FLOW cytometry machine and visualized by histograms using commercially available Cytologic software for each treatment group including all controls.
Biological variability in the magnitude of the response of THP-1 cell cultures requires that experiments be compared on the basis of percent change from "vehicle positive control" for each drug concentration. Percent change in each soluble protein evaluated from the "vehicle positive control" was calculated for each compound concentration with the following formula: % Change =(pg/ml(compound) - pg/ml (veh pos control))/(pg/ml (veh pos control) - pg/ml(veh neg control))x 100 [formula]
For the soluble protein (TNF-a, p75/80, p55/60, IL-8) studies under stimulated conditions, the mean pg/ml of duplicate wells were determined and the results expressed as percent change from "vehicle positive control". For the soluble protein (p75/80 and p55/60 receptors) studies under non-stimulated conditions, the mean pg/ml of duplicate wells were determined and the results expressed as percent change from "vehicle positive control" utilizing the following formula: % Change =(pg/ml (compound neg control) - pg/ml (veh neg control)/(pg/ml (veh neg control))X 100 [formula]
IC50 values for each compound are calculated by non-linear regression analysis using customized software utilizing the JUMP statistical package.

Sequence of TNF-α converting enzyme (TACE) (P78536 215-824, species assumed): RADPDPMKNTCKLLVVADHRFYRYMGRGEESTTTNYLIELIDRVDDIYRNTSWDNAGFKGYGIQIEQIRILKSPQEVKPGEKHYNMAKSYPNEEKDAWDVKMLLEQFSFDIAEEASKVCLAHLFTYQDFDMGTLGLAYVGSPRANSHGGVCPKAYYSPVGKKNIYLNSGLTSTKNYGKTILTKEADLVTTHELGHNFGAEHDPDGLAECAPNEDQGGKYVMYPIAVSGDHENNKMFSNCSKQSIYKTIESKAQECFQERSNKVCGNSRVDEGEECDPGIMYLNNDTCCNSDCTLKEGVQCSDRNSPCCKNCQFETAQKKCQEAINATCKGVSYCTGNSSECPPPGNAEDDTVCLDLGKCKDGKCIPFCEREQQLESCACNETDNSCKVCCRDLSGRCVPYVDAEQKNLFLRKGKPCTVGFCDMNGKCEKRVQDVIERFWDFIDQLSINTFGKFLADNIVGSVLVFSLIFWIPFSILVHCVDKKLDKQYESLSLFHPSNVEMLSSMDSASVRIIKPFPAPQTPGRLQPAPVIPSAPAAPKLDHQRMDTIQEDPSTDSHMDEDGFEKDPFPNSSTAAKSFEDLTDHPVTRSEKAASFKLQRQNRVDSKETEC

As to `Cc1cc(Br)cc(C(=O)NO)c1N(C)S(=O)(=O)c1ccc(OCC#CCNC2CCC2)cc1` [Example 31, 5-Bromo-2-{[4-(4-cyclobutylamino-but-2-ynyloxy)-benzenesulfonyl]-methyl-amino}-N-hydroxy-3-methyl-benzamide], the IC50 amounted to 724 nM against MMP-13, 44 nM in test [1] and 301 nM at MMP-9. Besides, the inhibition at 10 µM on MMP-1 came to 19%. For the same compound, in the test on THP-1 cells, the inhibition at 3 µM is 6%.
On to `Cc1cc(Br)cc(C(=O)NO)c1N(C)S(=O)(=O)c1ccc(OCC#CCOC2CCCCO2)cc1` (stereo not shown) [Example 69, 5-Bromo-N-hydroxy-3-methyl-2-(methyl-{4-[4-(tetrahydro-pyran-2-yloxy)-but-2-ynyloxy]-benzenesulfonyl}-amino)-benzamide], for which the IC50 at MMP-13 stood at 177 nM; in test [1] it was 30 nM; on MMP-9, 396 nM. Further, the inhibition at 10 µM on MMP-1 turned out to be 25%. Besides, the inhibition at 3 µM in the test on THP-1 cells turned out to be 19%.
In the case of `COc1cccc(C#CCOc2ccc(S(=O)(=O)N(C)c3c(C)cc(Br)cc3C(=O)NO)cc2)c1` [Example 60, 5-Bromo-N-hydroxy-2-({4-[3-(3-methoxy-phenyl)-prop-2-ynyloxy]-benzenesulfonyl}-methyl-amino)-3-methyl-benzamide], the IC50 at MMP-13 came to 935 nM; in test [1] it was 91 nM; against MMP-1, 1030 nM; against MMP-9 it was 671 nM. The inhibition at 3 µM in the test on THP-1 cells was determined as 1%.
For `Cc1cc(Br)cc(C(=O)NO)c1N(C)S(=O)(=O)c1ccc(OCC#Cc2ccccc2)cc1` [Example 59, 5-Bromo-N-hydroxy-3-methyl-2-{methyl-[4-(3-phenyl-prop-2-ynyloxy)-benzenesulfonyl]-amino}-benzamide], the IC50 amounted to 321 nM at MMP-13, 66 nM in test [1] and 857 nM at MMP-9. Also, the inhibition at 3 µM in the test on THP-1 cells worked out at 20%.
Consider “5-Bromo-2-[(4-butoxy-benzenesulfonyl)-methyl-amino]-N-hydroxy-3-methyl-benzamide [Example 39]”, for which the IC50 on MMP-13 came out at 68 nM; in test [1], 67 nM; against MMP-1, 2490 nM; against MMP-9, 21 nM. Moreover, the “% Inhib. @ 3µM THP” value with THP-1 cells turned out to be 0%.
With `Cc1cc(Br)cc(C(=O)NO)c1N(C)S(=O)(=O)c1ccc(OCC#CCO)cc1` [Example 70, 5-Bromo-N-hydroxy-2-{[4-(4-hydroxy-but-2-ynyloxy)-benzenesulfonyl]-methyl-amino}-3-methyl-benzamide], the IC50 at MMP-13 is 83 nM; at MMP-1, 3200 nM; on MMP-9, 477 nM. The inhibition at 3 µM in the test with THP-1 cells amounted to 88%.
For `COc1ccccc1C#CCOc1ccc(S(=O)(=O)N(C)c2c(C)cc(Br)cc2C(=O)NO)cc1` [Example 61, 5-Bromo-N-hydroxy-2-({4-[3-(2-methoxy-phenyl)-prop-2-ynyloxy]-benzenesulfonyl}-methyl-amino)-3-methyl-benzamide], the IC50 against MMP-13 was 1200 nM; in test [1], 193 nM; against MMP-9, 1510 nM. In addition, the inhibition at 10 µM at MMP-1 was 52%. For the same compound, the inhibition at 3 µM with THP-1 cells worked out at 0%.
As to `C#CC(C)Oc1ccc(S(=O)(=O)N(C)c2c(C)cc(Br)cc2C(=O)NO)cc1` (stereo not shown) [Example 79, 5-Bromo-N-hydroxy-3-methyl-2-{methyl-[4-(1-methyl-prop-2-ynyloxy)-benzenesulfonyl]-amino}-benzamide], the 50% inhibitory concentration (IC50) at MMP-13 came out at 433 nM; in test [1], 122 nM; at MMP-1, 1530 nM; against MMP-9, 455 nM. For the same compound, the inhibition at 3 µM with THP-1 cells is 9%.
`CCCCC#CCOc1ccc(S(=O)(=O)N(C)c2c(C)cc(Br)cc2C(=O)NO)cc1` [Example 56, 5-Bromo-2-[(4-hept-2-ynyloxy-benzenesulfonyl)-methyl-amino]-N-hydroxy-3-methyl-benzamide]: the figures for the IC50 against MMP-13 and against MMP-9 were 701 nM and 389 nM, respectively. Further, on MMP-1, the inhibition at 10 µM is 53%. Further, the inhibition at 3 µM in the test on THP-1 cells was found to be 16%.
For the compound `COc1ccc(S(=O)(=O)N(C)c2c(C)cc(Br)cc2C(=O)NO)cc1` [Example 36, 5-Bromo-N-hydroxy-2-[(4-methoxy-benzenesulfonyl)-methyl-amino]-3-methyl-benzamide], the half-maximal inhibitory concentration (IC50) against MMP-13 worked out at 21 nM; at MMP-9, 11 nM. Moreover, in the test with THP-1 cells, the inhibition at 3 µM was 14%.
As for `CC#CCOc1ccc(S(=O)(=O)N(C)c2c(C)cc(Br)cc2C(=O)NO)cc1` [Example 54, 5-Bromo-2-[(4-But-2-ynyloxy-benzenesulfonyl)-methyl-amino]-N-hydroxy-3-methyl-benzamide], the values for the 50% inhibitory concentration (IC50) against MMP-13, against MMP-1 and against MMP-9 were 154 nM, 1620 nM and 304 nM, respectively. The inhibition at 3 µM in the test on THP-1 cells amounted to 84%.

As usually defined, the IC50 is the concentration that gives 50% inhibition.
